Experimental data taken from paper PMC4389225, “Triaminopyrimidine is a fast-killing and long-acting antimalarial clinical candidate” (Nature Communications, 2015).
In brackets after ≈: the same amount, converted by molar mass.

Columns and labels:
Caco2 permeability = conditions: human, Caco-2
Muscarinic M2 receptor = molecular target: T1, Muscarinic M2 receptor (Homo sapiens, UniProt P08172); experiment: Muscarinic M2 receptor radioligand binding (CEREP)
T1 construct: purchased CEREP, France (external assay service)
T1 sequence (P08172 1-466): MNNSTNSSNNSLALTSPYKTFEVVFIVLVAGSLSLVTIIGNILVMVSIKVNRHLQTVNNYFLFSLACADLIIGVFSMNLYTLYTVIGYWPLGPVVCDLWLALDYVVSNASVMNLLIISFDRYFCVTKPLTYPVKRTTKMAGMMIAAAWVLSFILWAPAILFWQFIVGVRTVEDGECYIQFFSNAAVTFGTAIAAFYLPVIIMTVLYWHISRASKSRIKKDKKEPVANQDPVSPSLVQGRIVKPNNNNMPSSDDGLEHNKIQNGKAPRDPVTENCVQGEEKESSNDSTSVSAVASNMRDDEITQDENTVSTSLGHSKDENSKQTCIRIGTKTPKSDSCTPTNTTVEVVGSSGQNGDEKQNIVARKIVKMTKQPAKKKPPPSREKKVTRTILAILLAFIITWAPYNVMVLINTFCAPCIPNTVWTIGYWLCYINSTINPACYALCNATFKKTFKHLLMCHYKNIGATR
Procedure: (§1) An in vitro pharmacological profiling panel was specifically designed for the detection of potential high- risk clinical adverse drug reactions. The panel comprised of 26 diverse targets (6 enzymes, 2 transporters, 9 G-protein-coupled receptors (GPCRs), 5 ion channels along with hERG, M2, alpha1A and AchE) and was conduced externally by CEREP, France […]. […] Detailed methodology for in vitro pharmacological profiling assays provided by CEREP can be found at http://www.cerep.fr, with specific reference to the AChE (cat. no. 0363), Muscarinic M1 receptor (cat. no. 0091) and Adrenergic α1A receptor (cat. no. 2338) assays. For enzyme and kinase assays, the results were expressed as a percent inhibition of control-specific activity obtained in the presence of the test compound. The IC50 values (concentration causing a half-maximal inhibition of control-specific activity) and Hill coefficients (nH) were determined by nonlinear regression analysis of the inhibition/concentration–response curves using Hill equation curve fitting as described earlier.
(§2) For radioligand binding assays, the results are expressed as % inhibition of control-specific binding obtained in the presence of the test compounds. The IC50 values (concentration causing a half-maximal inhibition of control-specific binding) and Hill coefficients (nH) were determined by nonlinear regression analysis of the competition curves generated with mean replicate values using Hill equation curve fitting. The inhibition constants (Ki) were subsequently calculated by applying the Cheng Prusoff equation[38].

[1] = tested on: asexual blood stage of Pf; experiment: Pf asexual blood stage potency (Pf IC50); assay type: cell-based, Plasmodium falciparum; conditions: Plasmodium falciparum
Description: The TAPs series emerged from a high-throughput screen (HTS) of 500,000 compounds from the AstraZeneca corporate library against the asexual blood stage of Pf using a high-content image-based approach. The procedure for synthesis of compounds 1-6, 10, 11 using a scheme similar to Fig. 1 is provided in Supplementary Note 1. The initial hit provided multiple diversification points for a robust lead optimization campaign. […] Compounds with 2-pyridyl modification at the 2-amino position of pyrimidine core improved potency and solubility at the cost of potent activity against hERG and acetylcholine esterase (AChE; compounds 3-6; Table 1). […] The observed hERG and AChE selectivity improvement with 7 could be attributed to the polar nature of the pyrazole group and its role in reducing the pKa of the core pyrimidine ring. […] To assess the potential for cross-resistance, representative TAPs were screened against a panel of clinical isolates and in vitro-generated mutant strains displaying varying mechanisms of resistance to antimalarial agents currently in use and under development, respectively, (Supplementary Tables 1–3).

α1A adrenoceptor = molecular target: T2, α1A adrenoceptor (Homo sapiens, UniProt P35348); experiment: α1A adrenoceptor radioligand binding (CEREP)
T2 construct: purchased CEREP, France (external assay service) 2338
T2 sequence (P35348 1-466): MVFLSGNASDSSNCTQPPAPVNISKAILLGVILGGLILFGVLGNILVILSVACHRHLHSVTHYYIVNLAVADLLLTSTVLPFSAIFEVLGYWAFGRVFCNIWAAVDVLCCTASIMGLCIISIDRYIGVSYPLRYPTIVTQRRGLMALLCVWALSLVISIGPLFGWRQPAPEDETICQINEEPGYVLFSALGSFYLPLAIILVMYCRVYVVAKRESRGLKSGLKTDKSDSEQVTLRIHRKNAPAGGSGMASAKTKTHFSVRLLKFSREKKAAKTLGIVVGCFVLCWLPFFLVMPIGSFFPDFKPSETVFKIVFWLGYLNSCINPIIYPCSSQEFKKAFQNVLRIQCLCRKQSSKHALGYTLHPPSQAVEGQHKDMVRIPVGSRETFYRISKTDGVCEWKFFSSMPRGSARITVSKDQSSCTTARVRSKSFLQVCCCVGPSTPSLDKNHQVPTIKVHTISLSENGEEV
Procedure: as §1, §2

[2] = Rat blood PK, IV and oral; assay type: in vivo; conditions: Wistar, rat, whole blood, oral, 10 mg/kg, rat; read-out: Rat F (bioavailability)
Procedure: Blood samples were collected at 0.083, 0.25, 0.5, 1, 2, 4, 8, 23, 32, 48, 55 and 72 hours after an IV dose of 2 mg/kg or an oral dose of 10 mg/kg. Oral administration was done using oral gavage at a maximum dose volume of 10 mL/kg. Solution formulation containing 10% NMP, 20% DMA in dextrose / normal saline was used for IV administration and a suspension in 0.5% w/v HPMC with 0.1% v/v Tween 80 was used for oral administration. 25 µl of blood samples were mixed with 100 µL of Milli-Q water and vortexed for 5 minutes in the plate shaker at a speed of 900 rpm to ensure complete hemolysis. Proteins were precipitated by adding 125 µL of cold acetonotrile containing internal standard. After extraction on a plate shaker for 10 minutes at 900 rpm, the plate was centrifuged at 4000 rpm for 20 minutes. The supernatant (180 µL) was transferred to another plate and 2.5 µL of Zinc sulphate (200 mM) was added to separate the heme fraction. This mixture was centrifuged and 10 µL of the supernatant was analyzed by LC-MS/MS. […]

Pf 7G8 = experiment: microbe, parasite or virus in culture; assay type: cell-based; conditions: Plasmodium falciparum
Description: (§3) tested in duplicate from two independent experiments using a SYBR-Green based assay2.
(§4) (1 picture or pasted object on this page, not shown here)

Pf DD2 = experiment: microbe, parasite or virus in culture; assay type: cell-based; conditions: Plasmodium falciparum
Description: as §3, §4

Pf K1 = experiment: microbe, parasite or virus in culture; assay type: cell-based; conditions: Plasmodium falciparum
Description: as §3, §4

Pf NF54 = experiment: microbe, parasite or virus in culture; assay type: cell-based; conditions: Plasmodium falciparum
Description: as §3, §4

Pf W2 = experiment: microbe, parasite or virus in culture; assay type: cell-based; conditions: Plasmodium falciparum
Description: as §3, §4

Pf SB1 = experiment: microbe, parasite or virus in culture; assay type: cell-based; conditions: Plasmodium falciparum
Description: as §3, §4

hERG = molecular target: T3, hERG (Homo sapiens, UniProt Q12809); experiment: electrophysiology-based hERG assay using IonWorks HT (CHO cells); assay type: cell-based; conditions: hERG IC50
T3 construct: expressed in transfected cells; host or cells: CHO cells
T3 sequence (Q12809 whole entry): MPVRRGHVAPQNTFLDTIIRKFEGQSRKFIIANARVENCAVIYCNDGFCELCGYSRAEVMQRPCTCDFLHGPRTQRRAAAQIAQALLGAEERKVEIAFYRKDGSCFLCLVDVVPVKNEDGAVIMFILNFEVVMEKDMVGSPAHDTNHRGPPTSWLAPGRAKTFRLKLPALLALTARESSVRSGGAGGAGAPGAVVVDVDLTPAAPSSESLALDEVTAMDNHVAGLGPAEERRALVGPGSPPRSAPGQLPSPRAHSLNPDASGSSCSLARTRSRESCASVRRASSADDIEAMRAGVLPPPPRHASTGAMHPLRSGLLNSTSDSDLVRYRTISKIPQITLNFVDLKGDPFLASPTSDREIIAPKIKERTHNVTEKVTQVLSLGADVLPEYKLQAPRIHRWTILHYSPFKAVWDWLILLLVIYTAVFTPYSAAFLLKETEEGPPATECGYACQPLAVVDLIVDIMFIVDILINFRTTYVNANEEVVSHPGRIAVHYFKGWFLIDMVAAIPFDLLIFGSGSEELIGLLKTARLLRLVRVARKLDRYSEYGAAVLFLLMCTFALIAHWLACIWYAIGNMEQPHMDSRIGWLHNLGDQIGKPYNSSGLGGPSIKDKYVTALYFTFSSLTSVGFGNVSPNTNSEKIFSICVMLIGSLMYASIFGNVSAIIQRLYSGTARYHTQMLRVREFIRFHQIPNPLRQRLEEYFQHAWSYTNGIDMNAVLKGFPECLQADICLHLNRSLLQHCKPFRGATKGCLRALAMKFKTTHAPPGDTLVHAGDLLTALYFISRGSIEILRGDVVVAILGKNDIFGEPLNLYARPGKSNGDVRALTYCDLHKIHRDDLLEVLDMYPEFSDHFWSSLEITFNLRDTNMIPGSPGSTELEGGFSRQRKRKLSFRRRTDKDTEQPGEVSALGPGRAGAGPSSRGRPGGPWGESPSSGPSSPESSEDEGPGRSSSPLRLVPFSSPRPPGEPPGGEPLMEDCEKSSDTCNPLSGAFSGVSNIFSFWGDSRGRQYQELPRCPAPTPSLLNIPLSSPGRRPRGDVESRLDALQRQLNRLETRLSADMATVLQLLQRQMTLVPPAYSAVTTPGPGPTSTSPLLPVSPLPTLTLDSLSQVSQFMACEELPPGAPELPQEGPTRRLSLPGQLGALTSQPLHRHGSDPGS
Procedure: hERG IC50 was determined in an electrophysiology-based hERG assay using IonWorks HT (CHO cells) as described earlier.

[3] = molecular target: T4, acetylcholine esterase (AChE) (Homo sapiens, UniProt P22303); experiment: AChE enzyme activity assay (CEREP); assay type: biochemical; conditions: read-out: AChE IC50
T4 construct: purchased CEREP, France (external assay service) 0363
T4 sequence (P22303 32-614): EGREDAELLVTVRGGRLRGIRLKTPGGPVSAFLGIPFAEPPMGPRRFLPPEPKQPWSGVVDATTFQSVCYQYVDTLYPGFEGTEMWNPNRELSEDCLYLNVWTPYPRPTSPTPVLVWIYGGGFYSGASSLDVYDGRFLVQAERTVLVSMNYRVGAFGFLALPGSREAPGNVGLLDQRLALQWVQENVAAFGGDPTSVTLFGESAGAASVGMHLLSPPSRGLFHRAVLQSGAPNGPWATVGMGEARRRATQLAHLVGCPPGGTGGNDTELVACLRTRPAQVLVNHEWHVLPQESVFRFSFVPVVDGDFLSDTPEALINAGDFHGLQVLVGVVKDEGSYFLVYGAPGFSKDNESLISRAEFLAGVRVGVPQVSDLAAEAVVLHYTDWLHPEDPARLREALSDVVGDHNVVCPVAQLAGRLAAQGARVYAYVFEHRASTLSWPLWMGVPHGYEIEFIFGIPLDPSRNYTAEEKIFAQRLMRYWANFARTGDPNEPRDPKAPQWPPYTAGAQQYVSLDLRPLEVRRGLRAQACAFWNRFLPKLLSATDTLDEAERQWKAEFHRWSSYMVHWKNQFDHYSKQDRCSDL
Procedure: as §1

`CCc1cc(Nc2ncc(N3CCN[C@H](C)C3)c(Nc3cc(C)n(C)n3)n2)nc(C)c1F.Cl.Cl` [compound 8, (R)-N4-(1,5-dimethyl-1H-pyrazol-3-yl)-N2-(4-ethyl-5-fluoro-6-methylpyridin-2-yl)-5-(3-methylpiperazin-1-yl)pyrimidine-2,4-diamine dihydrochloride] showed a Papp A→B (Caco2 permeability) of 4 ×10⁻⁶ cm/s, an IC50 (Muscarinic M2 receptor) of 3100 nM and an IC50 [1] of 25 nM. The IC50 (α1A adrenoceptor) was 1300 nM, the bioavailability [2] was 31% and the IC50 (Pf 7G8) was 74.4 ± 17 nM. It also gave an IC50 (Pf DD2) of 38.3 ± 1.5 nM, an IC50 (Pf K1) of 64.7 ± 12 nM and an IC50 (Pf NF54) of 57.2 ± 20 nM. For the same molecule, the IC50 (Pf W2) was 78.8 ± 7 nM, the IC50 (Pf SB1) was 34.7 ± 3 nM and the IC50 (hERG) was greater than 30000 nM. The IC50 [3] was 30000 nM.
Work on `CCc1ccc(Nc2ncc(N3CCN(C)CC3)c(N3CCCC3)n2)cc1` [compound 1] yielded an IC50 [1] of 150 nM, a solubility (Solubility) of 10 µM (≈ 3.67 µg/mL) and an IC50 (hERG) of 3700 nM.
